Laboratory results published in patent US5486516A, “Furopyrimidine derivatives” (DowElanco, priority 1993, dated 1996).

System: Pyricularia oryzae (rice blast)
Assay: whole plant or invertebrate
Type: in vivo
Conditions: foliar, read-out: RICE BLAST control rating

Row | SMILES | pest or weed control at 400 µg/mL
1 | Fc1ccc(Oc2ncnc3oc4c(c23)CCCC4)cc1 [Example 34, 4-(4-fluorophenyloxy)-5,6,7,8-tetrahydrobenzofuro[2,3-d]pyrimidine] | 0 to 19%
2 | COc1cccc(CCNc2ncnc3occ(C)c23)c1 [Example 33, 5-methyl-N-[2-(3-methoxyphenyl)ethyl]furo[2,3-d]pyrimidin-4-amine] | 20 to 89%
3 | Cc1oc2ncnc(Oc3ccccc3C#N)c2c1C [Example 37, 2-[(5,6-dimethylfuro[2,3-d]pyrimidin-4-yl)oxy]benzonitrile] | 0 to 19%

System: Southern corn rootworm (Diabrotica undecimpuctata howardi Barber)
Assay: Mite/insect screen, corn rootworm
Type: in vivo
Conditions: Diabrotica; CRW rate 12.00 ppm, soil; read-out: CRW results (percent mortality)
Protocol: (§1) The compounds of Examples were tested for miticidal and insecticidal activity in the following mite/insect screen.
(§2) Each test compound was formulated by dissolving the compound in acetone/alcohol (50:50) mixture containing 23 g of "TOXIMUL R" (sulfonate/nonionic emulsifier blend) and 13 g of "TOXIMUL S" (sulfonate/nonionic emulsifier blend) per liter. These mixtures were then diluted with water to give the indicated concentrations.
Activity on Southern corn rootworm (Diabrotica undecimpuctata howardi Barber) was evaluated by adding two ml of tap water, a presoaked corn seed, and 15 g of dry sandy soil to a one ounce plastic container. The soil was treated with 1 mL of test solution containing a predetermined concentration of test compound. After six to 12 hours of drying, five 2-3 instar corn rootworm larvae were added to the individual cups, which were then capped and held at 23° C.
(§3) After standard exposure periods, percent mortality and phytotoxicity were evaluated. […] The following abbreviations are used in Table 3:
CRW refers to corn rootworm

Row | SMILES | mortality at 12 ppm
4 | Fc1ccc(Oc2ncnc3oc4c(c23)CCCC4)cc1 [Example 34, 4-(4-fluorophenyloxy)-5,6,7,8-tetrahydrobenzofuro[2,3-d]pyrimidine] | 0%
5 | Cc1oc2ncnc(OCCc3ccc(OCC(F)(F)F)cc3)c2c1C [Example 78] | 0%
6 | COc1cccc(CCNc2ncnc3occ(C)c23)c1 [Example 33, 5-methyl-N-[2-(3-methoxyphenyl)ethyl]furo[2,3-d]pyrimidin-4-amine] | 0%
7 | Cc1oc2ncnc(Oc3ccccc3C#N)c2c1C [Example 37, 2-[(5,6-dimethylfuro[2,3-d]pyrimidin-4-yl)oxy]benzonitrile] | 0%

Same assay, conditions: Diabrotica; CRW rate 24.00 ppm, soil; read-out: CRW results (percent mortality)

Row | SMILES | mortality at 24 ppm
8 | Fc1ccc(Oc2ncnc3oc4c(c23)CCCC4)cc1 [Example 34, 4-(4-fluorophenyloxy)-5,6,7,8-tetrahydrobenzofuro[2,3-d]pyrimidine] | 0%
9 | Cc1oc2ncnc(OCCc3ccc(OCC(F)(F)F)cc3)c2c1C [Example 78] | 0%
10 | COc1cccc(CCNc2ncnc3occ(C)c23)c1 [Example 33, 5-methyl-N-[2-(3-methoxyphenyl)ethyl]furo[2,3-d]pyrimidin-4-amine] | 0%
11 | Cc1oc2ncnc(Oc3ccccc3C#N)c2c1C [Example 37, 2-[(5,6-dimethylfuro[2,3-d]pyrimidin-4-yl)oxy]benzonitrile] | 0%

System: southern armyworm (Spodopetra eridania Cramer)
Assay: Mite/insect screen, Southern armyworm
Type: in vivo
Conditions: Spodoptera eridania; rate 200 ppm, sprayed leaves; read-out: SAW results (percent mortality)
Protocol: as §1, §2
(§4) Twospotted spider mites (Tetranychus urticae Koch) and melon aphids (Aphis gossvpii Glover) were introduced on squash cotyledons and allowed to establish on both leaf surfaces. Other plants in the same treatment pot were left uninfested. The leaves were then sprayed with 5 ml of test solution using a DeVilbiss atomizing sprayer at 10 psi. Both surfaces of the leaves were covered until runoff, and then allowed to dry for one hour. Two uninfested leaves were then excised and placed into a Petri dish containing larval southern armyworm (Spodopetra eridania Cramer).
as §3
SAW refers to Southern armyworm

Row | SMILES | mortality at 200 ppm
12 | Fc1ccc(Oc2ncnc3oc4c(c23)CCCC4)cc1 [Example 34, 4-(4-fluorophenyloxy)-5,6,7,8-tetrahydrobenzofuro[2,3-d]pyrimidine] | 0%
13 | Cc1oc2ncnc(OCCc3ccc(OCC(F)(F)F)cc3)c2c1C [Example 78] | 0%
14 | COc1cccc(CCNc2ncnc3occ(C)c23)c1 [Example 33, 5-methyl-N-[2-(3-methoxyphenyl)ethyl]furo[2,3-d]pyrimidin-4-amine] | 0%
15 | Cc1oc2ncnc(Oc3ccccc3C#N)c2c1C [Example 37, 2-[(5,6-dimethylfuro[2,3-d]pyrimidin-4-yl)oxy]benzonitrile] | 0%

Same assay, conditions: Spodoptera eridania; rate 400 ppm, sprayed leaves; read-out: SAW results (percent mortality)

Row | SMILES | mortality at 400 ppm
16 | Fc1ccc(Oc2ncnc3oc4c(c23)CCCC4)cc1 [Example 34, 4-(4-fluorophenyloxy)-5,6,7,8-tetrahydrobenzofuro[2,3-d]pyrimidine] | 0%
17 | Cc1oc2ncnc(OCCc3ccc(OCC(F)(F)F)cc3)c2c1C [Example 78] | 100%
18 | COc1cccc(CCNc2ncnc3occ(C)c23)c1 [Example 33, 5-methyl-N-[2-(3-methoxyphenyl)ethyl]furo[2,3-d]pyrimidin-4-amine] | 0%
19 | Cc1oc2ncnc(Oc3ccccc3C#N)c2c1C [Example 37, 2-[(5,6-dimethylfuro[2,3-d]pyrimidin-4-yl)oxy]benzonitrile] | 0%

System: Twospotted spider mites (Tetranychus urticae Koch)
Assay: Mite/insect screen, twospotted spider mites
Type: in vivo
Conditions: Tetranychus urticae, rate 200 ppm, sprayed leaves; read-out: SM results (percent mortality)
Protocol: as §1, §2, §4, §3
SM refers to twospotted spider mites

Row | SMILES | mortality at 200 ppm
20 | Fc1ccc(Oc2ncnc3oc4c(c23)CCCC4)cc1 [Example 34, 4-(4-fluorophenyloxy)-5,6,7,8-tetrahydrobenzofuro[2,3-d]pyrimidine] | 0%
21 | Cc1oc2ncnc(OCCc3ccc(OCC(F)(F)F)cc3)c2c1C [Example 78] | 20%
22 | COc1cccc(CCNc2ncnc3occ(C)c23)c1 [Example 33, 5-methyl-N-[2-(3-methoxyphenyl)ethyl]furo[2,3-d]pyrimidin-4-amine] | 80%
23 | Cc1oc2ncnc(Oc3ccccc3C#N)c2c1C [Example 37, 2-[(5,6-dimethylfuro[2,3-d]pyrimidin-4-yl)oxy]benzonitrile] | 90%

Same assay, conditions: Tetranychus urticae, rate 400 ppm, sprayed leaves; read-out: SM results (percent mortality)

Row | SMILES | mortality at 400 ppm
24 | Fc1ccc(Oc2ncnc3oc4c(c23)CCCC4)cc1 [Example 34, 4-(4-fluorophenyloxy)-5,6,7,8-tetrahydrobenzofuro[2,3-d]pyrimidine] | 0%
25 | Cc1oc2ncnc(OCCc3ccc(OCC(F)(F)F)cc3)c2c1C [Example 78] | 0%
26 | COc1cccc(CCNc2ncnc3occ(C)c23)c1 [Example 33, 5-methyl-N-[2-(3-methoxyphenyl)ethyl]furo[2,3-d]pyrimidin-4-amine] | 0%
27 | Cc1oc2ncnc(Oc3ccccc3C#N)c2c1C [Example 37, 2-[(5,6-dimethylfuro[2,3-d]pyrimidin-4-yl)oxy]benzonitrile] | 0%

System: melon aphids (Aphis gossvpii Glover)
Assay: Mite/insect screen, melon aphids
Type: in vivo
Conditions: Aphis; rate 200 ppm, sprayed leaves; read-out: MA results (percent mortality)
Protocol: as §1, §2, §4, §3
MA refers to melon aphids.

Row | SMILES | mortality at 200 ppm
28 | Fc1ccc(Oc2ncnc3oc4c(c23)CCCC4)cc1 [Example 34, 4-(4-fluorophenyloxy)-5,6,7,8-tetrahydrobenzofuro[2,3-d]pyrimidine] | 0%
29 | Cc1oc2ncnc(OCCc3ccc(OCC(F)(F)F)cc3)c2c1C [Example 78] | 90%
30 | COc1cccc(CCNc2ncnc3occ(C)c23)c1 [Example 33, 5-methyl-N-[2-(3-methoxyphenyl)ethyl]furo[2,3-d]pyrimidin-4-amine] | 40%
31 | Cc1oc2ncnc(Oc3ccccc3C#N)c2c1C [Example 37, 2-[(5,6-dimethylfuro[2,3-d]pyrimidin-4-yl)oxy]benzonitrile] | 0%

Same assay, conditions: Aphis; rate 400 ppm, sprayed leaves; read-out: MA results (percent mortality)

Row | SMILES | mortality at 400 ppm
32 | Fc1ccc(Oc2ncnc3oc4c(c23)CCCC4)cc1 [Example 34, 4-(4-fluorophenyloxy)-5,6,7,8-tetrahydrobenzofuro[2,3-d]pyrimidine] | 0%
33 | Cc1oc2ncnc(OCCc3ccc(OCC(F)(F)F)cc3)c2c1C [Example 78] | 100%
34 | COc1cccc(CCNc2ncnc3occ(C)c23)c1 [Example 33, 5-methyl-N-[2-(3-methoxyphenyl)ethyl]furo[2,3-d]pyrimidin-4-amine] | 0%
35 | Cc1oc2ncnc(Oc3ccccc3C#N)c2c1C [Example 37, 2-[(5,6-dimethylfuro[2,3-d]pyrimidin-4-yl)oxy]benzonitrile] | 0%

System: Puccinia recondita tritici (leaf rust)
Assay: Plant pathology screen (Test 1), leaf rust on wheat
Conditions: in Triticum aestivum, foliar, read-out: LEAF RUST control rating

Row | SMILES | pest or weed control at 400 µg/mL
36 | Fc1ccc(Oc2ncnc3oc4c(c23)CCCC4)cc1 [Example 34, 4-(4-fluorophenyloxy)-5,6,7,8-tetrahydrobenzofuro[2,3-d]pyrimidine] | 20 to 89%
37 | COc1cccc(CCNc2ncnc3occ(C)c23)c1 [Example 33, 5-methyl-N-[2-(3-methoxyphenyl)ethyl]furo[2,3-d]pyrimidin-4-amine] | 90 to 100%
38 | Cc1oc2ncnc(Oc3ccccc3C#N)c2c1C [Example 37, 2-[(5,6-dimethylfuro[2,3-d]pyrimidin-4-yl)oxy]benzonitrile] | 0 to 19%

System: Pseudoperonospora cubensis (downy mildew)
Assay: Plant pathology screen (Test 1), downy mildew on squash
Conditions: foliar, read-out: DOWN MDEW control rating

Row | SMILES | pest or weed control at 400 µg/mL
39 | Fc1ccc(Oc2ncnc3oc4c(c23)CCCC4)cc1 [Example 34, 4-(4-fluorophenyloxy)-5,6,7,8-tetrahydrobenzofuro[2,3-d]pyrimidine] | 0 to 19%
40 | COc1cccc(CCNc2ncnc3occ(C)c23)c1 [Example 33, 5-methyl-N-[2-(3-methoxyphenyl)ethyl]furo[2,3-d]pyrimidin-4-amine] | 90 to 100%
41 | Cc1oc2ncnc(Oc3ccccc3C#N)c2c1C [Example 37, 2-[(5,6-dimethylfuro[2,3-d]pyrimidin-4-yl)oxy]benzonitrile] | 20 to 89%

System: Erysiphe graminis tritici (powdery mildew)
Assay: Plant pathology screen (Test 1), powdery mildew on wheat
Conditions: Blumeria graminis, in Triticum aestivum, foliar, read-out: POWD MDEW control rating

Row | SMILES | pest or weed control at 400 µg/mL
42 | Fc1ccc(Oc2ncnc3oc4c(c23)CCCC4)cc1 [Example 34, 4-(4-fluorophenyloxy)-5,6,7,8-tetrahydrobenzofuro[2,3-d]pyrimidine] | 0 to 19%
43 | COc1cccc(CCNc2ncnc3occ(C)c23)c1 [Example 33, 5-methyl-N-[2-(3-methoxyphenyl)ethyl]furo[2,3-d]pyrimidin-4-amine] | 90 to 100%
44 | Cc1oc2ncnc(Oc3ccccc3C#N)c2c1C [Example 37, 2-[(5,6-dimethylfuro[2,3-d]pyrimidin-4-yl)oxy]benzonitrile] | 0 to 19%
